Laboratory results: patent publication US10485885B2, “Compositions and methods for delivery of agents” (ModernaTX, Inc., priority 2015, dated 2019)

Test system: circulating B cells and monocytes
Assay: B cell, B1a cell and monocyte frequencies and activation in non-human primate PBMCs
Type: in vivo, cynomolgus monkeys
Protocol: The percentage of monocyte activation was also measured at pre-bleed, day 1, day 22, day 43, and day 44 of the study.
FIGS. 84A and 84B show the EPO expression after the first injection and after the fifth injection. In particular, the concentration of EPO (ng/mL) was measured at 2 hours, 6 hours, 12 hours, 24 hours, and 48 hours following the first injection and the fifth injection. FIGS. 85A-85E show the EPO expression for each of the co-medications on day 1 and day 29 of the study. In particular, the concentration of EPO (ng/mL) was measured on day 1 and day 29 at 2 hours, 6 hours, 12 hours, 24 hours, and 48 hours for each co-medication group. Immune cell populations were also measured. Specifically, the percentage of B cells (FIG. 86A), B1a cells (FIG. 86B), and monocytes (FIG. 86C) in PBMCs was measured for each co-medication group at day-7, 24 hours post first injection, and 24 hours post fifth injection. B cell activation is reflected in FIG. 87. The percentage of activated B cells in circulating B cells was measured for each co-medication group at day-7, 24 hours post first injection, and 24 hours post fifth injection.
Monocyte activation is reflected in FIG. 88. The percentage of activated monocytes/macrophages in circulating PBMCs was measured for each co-medication group at day-7, 24 hours post first injection, and 24 hours post fifth injection. […] An increase in the percentage of activated monocytes/macrophages post injection was only observed in the fingolimod co-medication group.

[1] = co-medication with hEPO mRNA MC3-LNP, 24 hours post first injection

Structure (SMILES)	Frequencies of monocytes in PBMCs (co-medication)	Percentage of activated monocytes/macrophages post injection (co-medication)	Percentage of activated B cells in circulating B cells [1]	B cell frequencies in PBMCs (cynomolgus monkey, in vivo)	Percentage of activated B cells in circulating B cells (cynomolgus monkey, in vivo)
CCCCCCCCc1ccc(CCC(N)(CO)CO)cc1 [fingolimod]	significant decrease	increase	normal B cell activation similar to that of the control group		
CC[C@H](Nc1ncnc2[nH]cnc12)c1nc2cccc(F)c2c(=O)n1-c1ccccc1 [idelalisib]				slightly reduced	B cell activation was not observed
COc1cc(Nc2ncc(F)c(Nc3ccc4c(n3)N(COP(=O)(O)O)C(=O)C(C)(C)O4)n2)cc(OC)c1OC [fostamatinib]			normal B cell activation similar to that of the control group		
